# Reference: paper PMC6731595, “The anti-parasitic agent suramin and several of its analogues are inhibitors of the DNA binding protein Mcm10” (Open Biology, 2019)
# Entries after “also recorded” stand apart in the source; their conditions may differ. Structures can show the parent of a compound that is named as a salt.
# What was measured:
# [1] = molecular target: T1, Xenopus internal domain Mcm10 (xMcm10-ID) (Xenopus laevis, UniProt Q5EAW4); test: Fluorescence polarization HTS and dose-response assay, 5′-6FAM probe binding to xMcm10-ID; details: dose-response with repurchased or purchased compound
# T1 construct: xMcm10-ID (amino acid residues 229 to 427); 6xHis (HRV 3C site) (N, cleaved yes); made in house; host or cells: E. coli BL21(DE3)
# T1 sequence (Q5EAW4 229-427): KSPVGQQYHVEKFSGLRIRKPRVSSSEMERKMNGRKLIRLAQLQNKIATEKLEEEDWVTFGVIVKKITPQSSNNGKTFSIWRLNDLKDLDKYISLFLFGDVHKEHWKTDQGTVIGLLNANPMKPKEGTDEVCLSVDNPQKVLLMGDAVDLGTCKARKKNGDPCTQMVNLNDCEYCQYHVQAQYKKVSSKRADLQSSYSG
# Procedure: A fluorescence polarization (FP) HTS assay was established to detect inhibitors of the binding of the 5′-6FAM 10-mer oligo probe to Mcm10. Test compounds dissolved in DMSO were added to 384-well plates (Corning 4514) using an Echo 550 acoustic dispenser (final DMSO 0.1%) to achieve a final single point screening concentration of 10 µM. Then 10 µl of 2× Xenopus internal domain Mcm10 (xMcm10-ID, final concentration 2 µM) in binding buffer (20 mM Tris HCl, 100 mM NaCl, 5% glycerol, and 0.01% triton, pH 7.5) was added using the Combi nL Multidrop dispenser. Finally, 10 µl of 2× 5′-6FAM DNA (final 12.5 nM) in binding buffer was added using the Multidrop. DMSO (0.1%, high signal) and probe only (low signal) controls were included on every plate. Plates were mixed for 2 min, incubated for 60 min at RT in the dark, and read on a CLARIOstar multimode plate reader (excitation: 482-16, emission: 530-40, dichroic filter: LP504).
# The LOPAC pilot screen identified the sulfhydryl reagent 4-chloromercuribenzoic acid as an inhibitor in the fluorescence polarization (FP) assay. As there was no known Mcm10 inhibitor, 4-chloromercuribenzoic acid (30 μM) was used as a positive control on initial screening plates. Following the discovery of suramin as a Mcm10 inhibitor, suramin (7 μM) was used as a positive control on subsequent screening plates. To confirm activity, screening hits were tested in dose response experiments (8 concentrations in duplicate) using xMcm10-ID. Similar dose response experiments were conducted with suramin and its analogs to confirm activity for hMcm10-ID (1 μM) and xMcm10-FL (2 μM) and to determine selectivity relative to RPA70AB (0.4 μM). Saturation experiments for each protein were conducted using increasing concentrations of protein with a fixed probe concentration (12.5 nM). FP was measured in mP units, and ∆mP values for each well were calculated as the difference between the measured mP and the average of the “probe only” controls. […] The parallel and perpendicular mP values were also used to calculate total fluorescence intensity (TFI) determined by the sum of parallel mP + (2 x perpendicular mP). TFI was used to detect fluorescence interference by compounds [1]. […] IC50 values were calculated using the four parameter logistic equation in Prism 6.0 (GraphPad). Ki values were obtained using an online Ki calculator according to the equations of Nikolovska-Coleska (http://sw16.im.med.umich.edu/soft-ware/calc_ki/). KD values were calculated using the one site or two site binding equations in Prism 6.0 (GraphPad).
# [2] = test system: DNA replication of sperm chromatin in Xenopus egg extracts; test: In vitro DNA replication assay in Xenopus S-phase egg extracts ([α-32P]dGTP incorporation); type: biochemical; details: 10, 50, 150 and 300 µM
# Procedure: Xenopus egg extracts were prepared according to the method of Murray. Replication of sperm chromatin in S-phase egg extracts was monitored as previously described. Compounds identified by HTS were added to replication reactions immediately prior to addition of [α-^32P]dGTP (Perkin Elmer BLU514H250UC).
# To determine whether the four remaining confirmed HTS hits affected DNA replication, in vitro replication assays were performed using Xenopus S-phase egg extracts incubated with sperm chromatin [25, 34]. DNA replication was measured in the presence of bronopol, fumarprotocetraric acid, iriginol and suramin or DMSO by the incorporation of [α-^32P]dGTP. […] For this reason, further studies focused on suramin alone.
# Figure 1. Suramin inhibits DNA replication in an in vitro Xenopus replication assay. HTS hits were evaluated for inhibition of [α-^32P]dGTP incorporation into DNA using a cell-free extract prepared from Xenopus eggs at increasing concentrations (10, 50, 150 and 300 µM indicated by black triangle from right to left). No chemical (–) and DMSO were used as negative controls for replication inhibition (far left and far right lanes).
Structure (SMILES),inhibition of 5′-6FAM probe binding to xMcm10-ID (result in words) [1],"DNA replication, [α-32P]dGTP incorporation (result in words) [2]"
"Cc1nc(/N=N/c2cc(S(=O)(=O)O)ccc2S(=O)(=O)O)c(COP(=O)(O)O)c(C=O)c1O [iso-PPADS, pyridoxalphosphate-6-azophenyl-2’, 5’-disulfonic acid tetrasodium salt]",weakly and incompletely inhibit; also recorded: little activity,–
"Cc1ccc(C(=O)Nc2ccc(S(=O)(=O)O)c3cc(S(=O)(=O)O)cc(S(=O)(=O)O)c23)cc1NC(=O)c1cccc(NC(=O)Nc2cccc(C(=O)Nc3cc(C(=O)Nc4ccc(S(=O)(=O)O)c5cc(S(=O)(=O)O)cc(S(=O)(=O)O)c45)ccc3C)c2)c1 [suramin, suramin sodium salt]",active,dose-dependent decrease in replication products; also recorded: dose-dependent decrease in DNA replication
"Cc1nc(/N=N/c2ccc(S(=O)(=O)O)cc2S(=O)(=O)O)c(COP(=O)(O)O)c(C=O)c1O [PPADS, pyridoxalphosphate-6-azophenyl-2’, 4’-disulfonic acid tetrasodium salt]",weakly and incompletely inhibit; also recorded: little activity,–
